According to ChEMBL document CHEMBL4428124, “Advances in rationally designed dual inhibitors of HIV-1 reverse transcriptase and integrase” (Bioorg Med Chem, 2016):

Key:
[1] = tested on: Human immunodeficiency virus 1; experiment: Antiviral activity against HIV1; assay type: functional, organism-based
[2] = target: Human immunodeficiency virus type 1 reverse transcriptase (Human immunodeficiency virus 1, UniProt Q72547); experiment: Inhibition of recombinant HIV1 RT

| EC50 [1] [µM] | IC50 [2] [µM] | Structure (SMILES) |
| --- | --- | --- |
| 36.5 | > 200 | O=c1[nH]c(SCc2ccccc2)nc(C(O)c2ccccc2)c1O (centres undefined) |
| 36 | 95.1 | O=C(c1ccccc1)c1nc(SCc2ccccc2)[nH]c(=O)c1O |
| 0.021 | – | CC(C)Nc1cccnc1N1CCN(C(=O)c2cc3cc(NS(C)(=O)=O)ccc3[nH]2)CC1 [DELAVIRDINE] |
| 164 | 113 | O=C(c1ccc(Cl)cc1)c1nc(SCc2ccccc2)[nH]c(=O)c1O |
| 175 | > 200 | O=C(c1ccc(Br)cc1)c1nc(SCc2ccccc2)[nH]c(=O)c1O |
